Values joined by “and” are separate entries in the source; they are usually repeats but may differ in a detail not shown here. Equal entries are not always repeated. Inconclusive results and toxic doses are left out. The calls were made as follows: active = survival T/C of 150% or more; inactive = T/C below 125% in these data. Peptide text beside a SMILES is read from it. * marks the point of attachment. Cbz = O=C(OCc1ccccc1)*
Tested on: P388 leukemia ip, CD2F1 mice, survival T/C
Assay: NCI In Vivo Anticancer Drug Screen. Data for tumor model P388 Leukemia (intraperitoneal) in CD2F1 (CDF1) mice
Settings: endpoint: median survival time, higher = longer survival
In short: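 Mice carrying the transplanted tumor received test compound or vehicle. Survival was recorded in each group, and the value is the treated-group measurement divided by that of the vehicle-treated control group.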

[1] = dose: 50.0 mg/kg/injection, schedule: Q01DX009 (ip), vehicle: saline
[2] = dose: 100.0 mg/kg/injection, schedule: Q01DX009 (ip), vehicle: saline
[3] = dose: 200.0 mg/kg/injection, schedule: Q01DX009 (ip), vehicle: saline
[4] = dose: 60.0 mg/kg/injection, schedule: Q01DX005 (ip), vehicle: saline with Tween-80
[5] = dose: 120.0 mg/kg/injection, schedule: Q01DX005 (ip), vehicle: saline with Tween-80
[6] = dose: 240.0 mg/kg/injection, schedule: Q01DX005 (ip), vehicle: saline with Tween-80
[7] = dose: 12.5 mg/kg/injection, schedule: Q01DX009 (ip), vehicle: Klucel (hydroxypropylcellulose) (HPC)
[8] = dose: 25.0 mg/kg/injection, schedule: Q01DX009 (ip), vehicle: Klucel (hydroxypropylcellulose) (HPC)
[9] = dose: 50.0 mg/kg/injection, schedule: Q01DX009 (ip), vehicle: Klucel (hydroxypropylcellulose) (HPC)
[10] = dose: 50.0 mg/kg/injection, schedule: Q01DX005 (ip), vehicle: saline with Tween-80
[11] = dose: 100.0 mg/kg/injection, schedule: Q01DX005 (ip), vehicle: saline with Tween-80
[12] = dose: 200.0 mg/kg/injection, schedule: Q01DX005 (ip), vehicle: saline with Tween-80
[13] = dose: 100.0 mg/kg/injection, schedule: Q01DX009 (ip), vehicle: Klucel (hydroxypropylcellulose) (HPC)
[14] = dose: 12.5 mg/kg/injection, schedule: Q01DX009 (ip), vehicle: saline with Tween-80
[15] = dose: 25.0 mg/kg/injection, schedule: Q01DX009 (ip), vehicle: saline with Tween-80
[16] = dose: 50.0 mg/kg/injection, schedule: Q01DX009 (ip), vehicle: saline with Tween-80
[17] = dose: 200.0 mg/kg/injection, schedule: Q01DX009 (ip), vehicle: Klucel (hydroxypropylcellulose) (HPC)

Measured: T/C

O=C(O)CC(/C=C\C(=O)C(=O)O)=C\O
inactive: dose: 1.56 mg/kg/injection, schedule: Q01DX009 (ip), vehicle: saline 100 % of control | dose: 3.12 mg/kg/injection, schedule: Q01DX009 (ip), vehicle: saline 101 % of control | dose: 6.25 mg/kg/injection, schedule: Q01DX009 (ip), vehicle: saline 100 % of control | dose: 12.5 mg/kg/injection, schedule: Q01DX009 (ip), vehicle: saline 100 % of control and 114 % of control | dose: 25.0 mg/kg/injection, schedule: Q01DX009 (ip), vehicle: saline 100 % of control and 109 % of control | [1] 106 % of control | [2] 112 % of control | [3] 86 % of control

COc1cccc(/C=N/NC(=S)Nc2cc(C(F)(F)F)cc(C(F)(F)F)c2)c1O
inactive: dose: 25.0 mg/kg/injection, schedule: Q01DX005 (ip), vehicle: Klucel (hydroxypropylcellulose) (HPC) 93 % of control | dose: 50.0 mg/kg/injection, schedule: Q01DX005 (ip), vehicle: Klucel (hydroxypropylcellulose) (HPC) 100 % of control and 93 % of control

CC(CCO)CCCO (stereo not drawn)
inactive: [4] 97 % of control | [5] 95 % of control | [6] 101 % of control

CC(C)=CCc1cc(O)c(C)cc1O
inactive: dose: 12.5 mg/kg/injection, schedule: Q01DX009 (ip), vehicle: distilled water + Tween-80 + alcohol 99 % of control | dose: 25.0 mg/kg/injection, schedule: Q01DX009 (ip), vehicle: distilled water + Tween-80 + alcohol 91 % of control

CCCCCCCC(=O)Nc1cc(C)ccc1C
inactive: dose: 100.0 mg/kg/injection, schedule: Q04DX003 (ip), vehicle: saline with Tween-80 100 % of control | dose: 200.0 mg/kg/injection, schedule: Q04DX003 (ip), vehicle: saline with Tween-80 86 % of control | dose: 400.0 mg/kg/injection, schedule: Q04DX003 (ip), vehicle: saline with Tween-80 90 % of control

C[N+](C)(Cc1ccc(Br)cc1)C1c2ccccc2-c2ccccc21
inactive: [7] 107 % of control | [8] 108 % of control | [9] 115 % of control and 98 % of control

CC(C)CC1=C(C(=O)c2ccoc2)CC(C)C1 (stereo not drawn)
inactive: dose: 3.7 mg/kg/injection, schedule: Q01DX005 (ip), vehicle: Klucel (hydroxypropylcellulose) (HPC) 99 % of control | dose: 7.5 mg/kg/injection, schedule: Q01DX005 (ip), vehicle: Klucel (hydroxypropylcellulose) (HPC) 95 % of control | dose: 15.0 mg/kg/injection, schedule: Q01DX005 (ip), vehicle: Klucel (hydroxypropylcellulose) (HPC) 95 % of control

CC(C)CC(NC(=O)C(NC(=O)OCc1ccccc1)C(C)C)C(=O)O (stereo not drawn) (Cbz-Val-Leu-OH; configuration not given here)
inactive: [10] 92 % of control | [11] 106 % of control | [12] 111 % of control

COc1ccc2nc3cc(Cl)ccc3c(NCCCCCCNc3c4ccc(Cl)cc4nc4ccc(OC)nc34)c2n1
inactive: [9] 93 % of control | [13] 105 % of control

CC(C)N(B1NCC(C)N1C(C)C)C(C)C (stereo not drawn)
inactive: dose: 100.0 mg/kg/injection, schedule: Q01DX001 (ip), vehicle: saline 101 % of control | dose: 200.0 mg/kg/injection, schedule: Q01DX001 (ip), vehicle: saline 102 % of control | dose: 400.0 mg/kg/injection, schedule: Q01DX001 (ip), vehicle: saline 100 % of control

CCOC(=O)C1=C(CC)NN=C(C)C1
inactive: [10] 105 % of control | [11] 103 % of control | [12] 100 % of control

O=c1[nH]c(=O)c2cccnc2[nH]1
inactive: dose: 6.25 mg/kg/injection, schedule: Q01DX009 (ip), vehicle: Klucel (hydroxypropylcellulose) (HPC) 93 % of control | [7] 99 % of control | [8] 121 % of control and 93 % of control | [9] 118 % of control | [13] 99 % of control

N#CNC(c1ccccc1)(c1ccccc1)c1ccccc1
inactive: [10] 98 % of control | [11] 98 % of control | [12] 94 % of control

C=C(c1ccc(Cl)cc1)c1ccc(OC)c(OC)c1
inactive: [10] 94 % of control | [11] 99 % of control | [12] 97 % of control

Cc1cc(NC(=S)SCc2ccc(Cl)cc2)ccc1Br
inactive: [14] 124 % of control | [15] 119 % of control | [9] 114 % of control and 124 % of control | [16] 124 % of control | dose: 50.0 mg/kg/injection, schedule: Q01DX009 (ip), vehicle: suspension in saline 108 % of control | [13] 118 % of control and 120 % of control | dose: 100.0 mg/kg/injection, schedule: Q01DX009 (ip), vehicle: suspension in saline 101 % of control | [17] 123 % of control | dose: 200.0 mg/kg/injection, schedule: Q01DX009 (ip), vehicle: suspension in saline 113 % of control

C[CH2][Sn]([O][Sn]([Cl])([CH2]C)[c]1ccccc1)[c]1ccccc1 (stereo not drawn)
inactive: dose: 3.12 mg/kg/injection, schedule: Q01DX005 (ip), vehicle: Klucel (hydroxypropylcellulose) (HPC) 118 % of control | dose: 6.25 mg/kg/injection, schedule: Q01DX005 (ip), vehicle: Klucel (hydroxypropylcellulose) (HPC) 101 % of control | dose: 12.5 mg/kg/injection, schedule: Q01DX005 (ip), vehicle: Klucel (hydroxypropylcellulose) (HPC) 101 % of control

CC(C)c1nnc2cc3c(cc2c1N)oc1ccccc13
inactive: dose: 100.0 mg/kg/injection, schedule: Q04DX002 (ip), vehicle: saline with Tween-80 87 % of control | dose: 200.0 mg/kg/injection, schedule: Q04DX002 (ip), vehicle: saline with Tween-80 92 % of control | dose: 400.0 mg/kg/injection, schedule: Q04DX002 (ip), vehicle: saline with Tween-80 87 % of control

C=C1C(=O)OC2CC(C)C3CC(OC)OC(OC)C3(C)CC12 (stereo not drawn)
inactive: [9] 105 % of control and 97 % of control | [13] 103 % of control and 114 % of control | [17] 123 % of control and 97 % of control | dose: 400.0 mg/kg/injection, schedule: Q01DX009 (ip), vehicle: Klucel (hydroxypropylcellulose) (HPC) 119 % of control

COc1cc2cc(=O)n(N)c(C)c2cc1OC
inactive: [1] 108 % of control | [2] 106 % of control | [3] 99 % of control

CC(C)N(C(C)C)P1P(N(C(C)C)C(C)C)P(N(C(C)C)C(C)C)P1N(C(C)C)C(C)C (stereo not drawn)
inactive: [4] 88 % of control | [5] 86 % of control | [6] 89 % of control

Clc1ccc(-c2nnc(-c3cccc(Cl)n3)o2)c(Cl)c1
inactive: dose: 43.8 mg/kg/injection, schedule: Q01DX005 (ip), vehicle: saline with Tween-80 99 % of control | dose: 87.5 mg/kg/injection, schedule: Q01DX005 (ip), vehicle: saline with Tween-80 87 % of control

COc1cc(CO)c(I)c(OC)c1OC
inactive: dose: 100.0 mg/kg/injection, schedule: Q01DX001 (ip), vehicle: Klucel (hydroxypropylcellulose) (HPC) 99 % of control | dose: 200.0 mg/kg/injection, schedule: Q01DX001 (ip), vehicle: Klucel (hydroxypropylcellulose) (HPC) 97 % of control

Clc1cc2c(nn1)Nc1ccccc1S2
inactive: [14] 97 % of control | [15] 96 % of control | [16] 99 % of control and 87 % of control | dose: 100.0 mg/kg/injection, schedule: Q01DX009 (ip), vehicle: saline with Tween-80 98 % of control | dose: 200.0 mg/kg/injection, schedule: Q01DX009 (ip), vehicle: saline with Tween-80 87 % of control

CCOC(=O)c1nc(N(C)C)oc(=O)c1C
inactive: dose: 60.0 mg/kg/injection, schedule: Q01DX005 (ip), vehicle: saline 101 % of control | dose: 120.0 mg/kg/injection, schedule: Q01DX005 (ip), vehicle: saline 97 % of control | dose: 240.0 mg/kg/injection, schedule: Q01DX005 (ip), vehicle: saline 100 % of control
